Assay results taken from PubChem BioAssay AID2060892 (Molecular Pharmacology Branch, DTP, NCI, 2025).

System: HOP-62 complex spheroids with HUVEC/MSC, viability
Experiment: Anticancer human tumor HOP-62 cell line growth inhibition [RAS];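 note: spheroids exposed to agents for seven days before readout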;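 for viability, T/C: 100% = DMSO vehicle control viability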
Settings: for IC50: curve of first compound; for viability, T/C: stronger effect = lower value
Method in brief: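 Agents were tested in combination matrices in half-log decrements from a top concentration at or near clinical Cmax (10 microM if undetermined). Targets were multi-cell spheroids of tumour lines plus HUVEC and MSC stromal cells.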

[1] = second compound 0.000949 µM, first compound 0.0316 µM
[2] = second compound 0.000949 µM, first compound 0.1 µM
[3] = second compound 0.000949 µM, first compound 0.316 µM
[4] = second compound 0.000949 µM, first compound 1 µM
[5] = second compound 0.003 µM, first compound 0.0316 µM
[6] = second compound 0.003 µM, first compound 0.1 µM
[7] = second compound 0.003 µM, first compound 0.316 µM
[8] = second compound 0.003 µM, first compound 1 µM
[9] = second compound 0.00949 µM, first compound 0.0316 µM
[10] = second compound 0.00949 µM, first compound 0.1 µM
[11] = second compound 0.00949 µM, first compound 0.316 µM
[12] = second compound 0.00949 µM, first compound 1 µM
[13] = second compound 0.03 µM, first compound 0.0316 µM
[14] = second compound 0.03 µM, first compound 0.1 µM
[15] = second compound 0.03 µM, first compound 0.316 µM
[16] = second compound 0.03 µM, first compound 1 µM
[17] = second compound 0.0949 µM, first compound 0.0316 µM
[18] = second compound 0.0949 µM, first compound 0.1 µM
[19] = second compound 0.0949 µM, first compound 0.316 µM
[20] = second compound 0.0949 µM, first compound 1 µM
[21] = second compound 0.3 µM, first compound 0.0316 µM
[22] = second compound 0.3 µM, first compound 0.1 µM
[23] = second compound 0.3 µM, first compound 0.316 µM
[24] = second compound 0.3 µM, first compound 1 µM

Which results are given for `CC(=O)OC12COC1CC(O)C1(C)C(=O)C(O)C3=C(C)C(OC(=O)C(O)C(NC(=O)OC(C)(C)C)c4ccccc4)CC(O)(C(OC(=O)c4ccccc4)C21)C3(C)C` (centres undefined) + CCn1c(-c2cc(N3CCN(C)CC3)cnc2C(C)OC)c2c3cc(ccc31)-c1csc(n1)CC(NC(=O)C1CC1C)C(=O)N1CCCC(N1)C(=O)OCC(C)(C)C2?
IC50 (second compound 0.000949 µM): < 31.6 nM; IC50 (second compound 0.003 µM): < 31.6 nM; IC50 (second compound 0.00949 µM): < 31.6 nM; IC50 (second compound 0.03 µM): < 31.6 nM; IC50 (second compound 0.0949 µM): < 31.6 nM; IC50 (second compound 0.3 µM): < 31.6 nM; viability, T/C [1]: 41.1%; viability, T/C [2]: 34.9%; viability, T/C [3]: 28.9%; viability, T/C [4]: 43.6%; viability, T/C (second compound 0.000949 µM, first compound 3.16 µM): 42.7%; viability, T/C (second compound 0.000949 µM, first compound 10 µM): 42.6%; viability, T/C [5]: 44.1%; viability, T/C [6]: 38.5%; viability, T/C [7]: 33.4%; viability, T/C [8]: 30.6%; viability, T/C (second compound 0.003 µM, first compound 3.16 µM): 36.6%; viability, T/C (second compound 0.003 µM, first compound 10 µM): 35%; viability, T/C [9]: 42.4%; viability, T/C [10]: 28.5%; viability, T/C [11]: 31.5%; viability, T/C [12]: 37%; viability, T/C (second compound 0.00949 µM, first compound 3.16 µM): 35.9%; viability, T/C (second compound 0.00949 µM, first compound 10 µM): 33.4%; viability, T/C [13]: 44.1%; viability, T/C [14]: 35.1%; viability, T/C [15]: 31.1%; viability, T/C [16]: 30.8%; viability, T/C (second compound 0.03 µM, first compound 3.16 µM): 30.4%; viability, T/C (second compound 0.03 µM, first compound 10 µM): 40.1%; viability, T/C [17]: 32.3%; viability, T/C [18]: 33.6%; viability, T/C [19]: 31.5%; viability, T/C [20]: 32.9%; viability, T/C (second compound 0.0949 µM, first compound 3.16 µM): 33.6%; viability, T/C (second compound 0.0949 µM, first compound 10 µM): 32.6%; viability, T/C [21]: 37%; viability, T/C [22]: 30.9%; viability, T/C [23]: 39%; viability, T/C [24]: 31.7%; viability, T/C (second compound 0.3 µM, first compound 3.16 µM): 27.9%; viability, T/C (second compound 0.3 µM, first compound 10 µM): 35.6%

`Nc1ccn(C2OC(CO)C(O)C2(F)F)c(=O)n1` (centres undefined) + CCn1c(-c2cc(N3CCN(C)CC3)cnc2C(C)OC)c2c3cc(ccc31)-c1csc(n1)CC(NC(=O)C1CC1C)C(=O)N1CCCC(N1)C(=O)OCC(C)(C)C2 was tested. Which IC50 (second compound 0.000949 µM) did it give?
The IC50 was 15.7 nM.

And the IC50 (second compound 0.003 µM)?
The IC50 was 12.9 nM.

And the IC50 (second compound 0.00949 µM)?
Its IC50 is 12 nM.

And the IC50 (second compound 0.03 µM)?
Its IC50 is 10.6 nM.

What about the IC50 (second compound 0.0949 µM) of the same molecule?
The IC50 was less than 3.16 nM.

What about the IC50 (second compound 0.3 µM) of the same molecule?
The IC50 was less than 3.16 nM.

What about the viability, T/C (second compound 0.000949 µM, first compound 0.00316 µM) of the same molecule?
Its viability, T/C is 121%.

And the viability, T/C (second compound 0.000949 µM, first compound 0.01 µM)?
Its viability, T/C is 71.2%.

And the viability, T/C [1]?
Its viability, T/C is 16.9%.

What about the viability, T/C [2] of the same molecule?
Its viability, T/C is 12.5%.

And the viability, T/C [3]?
The viability, T/C was 9.82%.

And the viability, T/C [4]?
Its viability, T/C is 5.86%.

What about the viability, T/C (second compound 0.003 µM, first compound 0.00316 µM) of the same molecule?
Its viability, T/C is 93.9%.

And the viability, T/C (second compound 0.003 µM, first compound 0.01 µM)?
The viability, T/C was 56%.

And the viability, T/C [5]?
The viability, T/C was 29.5%.

And the viability, T/C [6]?
The viability, T/C was 19.4%.

And the viability, T/C [7]?
Its viability, T/C is 14.9%.

And the viability, T/C [8]?
The viability, T/C was 8.45%.

What about the viability, T/C (second compound 0.00949 µM, first compound 0.00316 µM) of the same molecule?
Its viability, T/C is 68.1%.

What about the viability, T/C (second compound 0.00949 µM, first compound 0.01 µM) of the same molecule?
The viability, T/C was 52.5%.

And the viability, T/C [9]?
The viability, T/C was 36.2%.

And the viability, T/C [10]?
The viability, T/C was 26.6%.

What about the viability, T/C [11] of the same molecule?
The viability, T/C was 17.5%.

And the viability, T/C [12]?
The viability, T/C was 17.3%.

What about the viability, T/C (second compound 0.03 µM, first compound 0.00316 µM) of the same molecule?
The viability, T/C was 60.4%.

What about the viability, T/C (second compound 0.03 µM, first compound 0.01 µM) of the same molecule?
Its viability, T/C is 49.2%.

And the viability, T/C [13]?
Its viability, T/C is 40.3%.

And the viability, T/C [14]?
The viability, T/C was 31%.

And the viability, T/C [15]?
The viability, T/C was 20.8%.

And the viability, T/C [16]?
Its viability, T/C is 25.1%.

And the viability, T/C (second compound 0.0949 µM, first compound 0.00316 µM)?
The viability, T/C was 45.6%.

What about the viability, T/C (second compound 0.0949 µM, first compound 0.01 µM) of the same molecule?
The viability, T/C was 38.4%.

What about the viability, T/C [17] of the same molecule?
Its viability, T/C is 35.6%.

What about the viability, T/C [18] of the same molecule?
The viability, T/C was 28.9%.

What about the viability, T/C [19] of the same molecule?
Its viability, T/C is 23.9%.

What about the viability, T/C [20] of the same molecule?
The viability, T/C was 27.4%.

What about the viability, T/C (second compound 0.3 µM, first compound 0.00316 µM) of the same molecule?
Its viability, T/C is 43.5%.

And the viability, T/C (second compound 0.3 µM, first compound 0.01 µM)?
The viability, T/C was 38.8%.

What about the viability, T/C [21] of the same molecule?
Its viability, T/C is 39.7%.

What about the viability, T/C [22] of the same molecule?
Its viability, T/C is 25.9%.

And the viability, T/C [23]?
The viability, T/C was 25.9%.

And the viability, T/C [24]?
Its viability, T/C is 31.7%.
